# From publication PMC8508710, “Biochemical Characterization of 13-Lipoxygenases of Arabidopsis thaliana” (International Journal of Molecular Sciences, 2021)
# Like-named read-outs stand apart in the source and are kept apart here.
# Legend:
# LOX4 [1] = molecular target: T1, LOX4 (Arabidopsis thaliana, UniProt Q9FNX8); experiment: LOX4 activity, oxygen electrode (polarography); format: biochemical; set-up: made in house; host or cells: E. coli Nico21(DE3), pET15b; settings: enzyme incubated with 280 µM chemical (1/10 vol of 2.8 mM), injected into 30 µM LeA, 50 mM Tris-HCl pH 7.2; vs solvent control; read-out: Polarography Relative Activity (%) LOX4
# T1 sequence (Q9FNX8 71-926): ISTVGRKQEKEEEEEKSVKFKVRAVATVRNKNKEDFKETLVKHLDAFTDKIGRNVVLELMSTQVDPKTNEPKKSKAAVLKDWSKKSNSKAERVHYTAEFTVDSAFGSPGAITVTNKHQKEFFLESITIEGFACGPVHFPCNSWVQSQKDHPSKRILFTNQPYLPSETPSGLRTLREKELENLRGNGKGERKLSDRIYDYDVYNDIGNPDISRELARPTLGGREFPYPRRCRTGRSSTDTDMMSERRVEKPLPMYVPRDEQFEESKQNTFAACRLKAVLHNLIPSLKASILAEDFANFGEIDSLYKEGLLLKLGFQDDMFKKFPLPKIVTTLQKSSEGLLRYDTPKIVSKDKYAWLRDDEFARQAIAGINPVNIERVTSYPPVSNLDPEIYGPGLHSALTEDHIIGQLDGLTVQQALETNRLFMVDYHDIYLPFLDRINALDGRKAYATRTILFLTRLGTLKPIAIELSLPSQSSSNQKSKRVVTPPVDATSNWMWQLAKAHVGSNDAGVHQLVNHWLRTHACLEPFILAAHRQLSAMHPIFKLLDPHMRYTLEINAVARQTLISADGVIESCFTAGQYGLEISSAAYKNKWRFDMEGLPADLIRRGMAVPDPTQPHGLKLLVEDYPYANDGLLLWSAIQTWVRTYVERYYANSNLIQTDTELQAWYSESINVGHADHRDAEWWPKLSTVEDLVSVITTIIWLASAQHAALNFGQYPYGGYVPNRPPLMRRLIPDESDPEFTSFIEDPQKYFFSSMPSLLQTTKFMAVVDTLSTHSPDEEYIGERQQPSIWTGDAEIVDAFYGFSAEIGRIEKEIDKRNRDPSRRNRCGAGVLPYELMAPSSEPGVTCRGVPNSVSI
# LOX3 [2] = molecular target: T2, LOX3 (Arabidopsis thaliana, UniProt Q9LNR3); experiment: LOX3 activity, oxygen electrode (polarography); format: biochemical; set-up: made in house; host or cells: E. coli Nico21(DE3), pET15b; settings: enzyme incubated with 280 µM chemical (1/10 vol of 2.8 mM), injected into 30 µM LeA, 50 mM Tris-HCl pH 7.2; vs solvent control; read-out: Polarography Relative Activity (%) LOX3
# T2 sequence (Q9LNR3 71-919): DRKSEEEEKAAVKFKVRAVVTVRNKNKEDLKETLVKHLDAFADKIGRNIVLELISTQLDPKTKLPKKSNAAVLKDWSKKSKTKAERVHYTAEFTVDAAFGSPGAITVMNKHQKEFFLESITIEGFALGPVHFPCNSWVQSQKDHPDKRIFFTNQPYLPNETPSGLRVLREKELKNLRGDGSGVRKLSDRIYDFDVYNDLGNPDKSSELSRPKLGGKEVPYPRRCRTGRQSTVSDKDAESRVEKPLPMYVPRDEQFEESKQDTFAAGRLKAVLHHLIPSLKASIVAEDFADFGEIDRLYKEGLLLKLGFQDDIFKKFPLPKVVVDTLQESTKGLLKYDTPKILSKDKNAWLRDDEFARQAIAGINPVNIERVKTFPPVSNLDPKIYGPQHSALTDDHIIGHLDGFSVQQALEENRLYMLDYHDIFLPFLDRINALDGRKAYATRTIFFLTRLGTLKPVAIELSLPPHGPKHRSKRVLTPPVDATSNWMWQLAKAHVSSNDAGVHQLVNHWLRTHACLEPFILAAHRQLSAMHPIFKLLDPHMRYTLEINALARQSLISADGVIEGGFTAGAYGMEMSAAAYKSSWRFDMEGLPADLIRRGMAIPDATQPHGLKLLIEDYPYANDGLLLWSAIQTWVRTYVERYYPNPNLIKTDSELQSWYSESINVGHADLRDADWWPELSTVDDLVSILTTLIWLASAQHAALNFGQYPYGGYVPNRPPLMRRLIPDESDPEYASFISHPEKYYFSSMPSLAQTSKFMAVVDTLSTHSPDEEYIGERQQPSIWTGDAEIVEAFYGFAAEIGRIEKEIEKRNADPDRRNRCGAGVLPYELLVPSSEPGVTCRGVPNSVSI
# AOS = system: AOS; set-up: method as in PMID 12223729; settings: cited from earlier work
# LOX4 [3] = molecular target: T1, LOX4; experiment: LOX4 activity, spectrophotometric (conjugated diene formation at 234 nm); settings: for Photometry Relative activity (%) LOX4: enzyme 0.225 µg/µL incubated 10 min 30 °C with 280 µM chemical, 4.8 µM LeA, 50 mM Tris-HCl pH 7.2, vs solvent control; for Relative Activity (%) LOX4: E. coli lysate in 50 mM TRIS pH 8.0 diluted 1:10, 50 mM HEPES pH 8.0 + 1 mM metal salt, LeA, 234 nm
# LOX3 [4] = molecular target: T2, LOX3; experiment: Intrinsic fluorescence of LOX3; format: binding; set-up: made in house; host or cells: E. coli Nico21(DE3), pET15b; settings: as Figure 5B; for Emission maximum: control 330.8±1.6, in nm (unit assumed); for Relative fluorescence intensity at emission maximum: λExc = 280 nm, control 134.5±3.9
# Description: Figure 5 Analysis of the interaction of 12-OPDA and MJ with LOX4. […] LOX4 (0.22 µg/µL) was incubated with compounds at indicated concentrations for 10 min at 30 °C, and residual LOX activity was measured spectrophotometrically by the injection of 3 µL incubation mixture into 123 µL LeA (4.8 µM in 50 mM Tris-HCl, pH 7.2). […] (B) Intrinsic fluorescence of LOX4 incubated with 12-OPDA, MJ and solvent (control). Here, 120 µL LOX4 (0.2 µg/µL) was mixed with 15 µL chemical (1.4 mM in 50 mM K-Pi, pH 8.0) or solvent (control) and analyzed for intrinsic fluorescence emission after excitation at λExc = 280 nm. Mean graphs are shown (n = 4).
# Int. J. Mol. Sci. 2021, 22, x FOR PEER REVIEW 11 of 17
# Figure S7. Interaction and activity studies of LOX2, LOX3 and LOX6. (A) LOX2, LOX3 and LOX6 activities in presence of increasing amounts of MJ and 12-OPDA. Analysis was performed as described for IC50 determination of LOX4 (see Figure 5A). 100% activity […]
# (B) Intrinsic fluorescence of LOX2 and LOX3 incubated with 12-OPDA, MJ and solvent control. Analysis was performed as in Figure 5B. […]
# AOC = system: AOC; set-up: method as in PMID 12223729; settings: cited from earlier work
smiles,measurement,setting,value
"CCC=CCC1C(=O)C=CC1CCCCCCCC(=O)O (stereo not drawn) [12-OPDA, cis-(+)-12-oxophytodienoic acid]",activity at 280 µM,LOX4 [1],21 ± 5%
same,activity at 280 µM,LOX3 [2],60 ± 5%
same,Sensitivity of AOS,AOS; 0.5 mM,insensitivity
same,IC50,LOX4 [3],48 µM
same,Ki,LOX4 [3],10 µM
same,Mode of inhibition,LOX4 [3]; Lineweaver–Burk and Dixon plots,non-competitive or mixed
same,Photometry Relative activity (%) LOX4,LOX4 [3],6 ± 4%
same,Emission maximum,LOX3 [4],333.2±0.3
same,Relative fluorescence intensity at emission maximum,LOX3 [4],115.2±1.3
same,Sensitivity of AOC,AOC; 0.5 mM,insensitivity
[Ca+2].[Cl-].[Cl-] [CaCl2],Sensitivity of AOS,AOS; 1.0 mM,insensitivity
same,Relative Activity (%) LOX4,LOX4 [3],85±6%
same,Sensitivity of AOC,AOC; 1.0 mM,insensitivity
O=S(=O)([O-])[O-].[Cd+2] [CdSO4],Relative Activity (%) LOX4,LOX4 [3],40±6%
"CC/C=C\CC1C(=O)CCC1CC(=O)OC (centres unmarked) [MJ, methyl jasmonate]",activity at 280 µM,LOX4 [1],95 ± 3%
same,activity at 280 µM,LOX3 [2],85 ± 5%
same,Emission maximum,LOX3 [4],331.7±0.8
same,Relative fluorescence intensity at emission maximum,LOX3 [4],126.4±3.0
[Cl-].[Cl-].[Mg+2] [MgCl2],Sensitivity of AOS,AOS; 1.0 mM,insensitivity
same,Relative Activity (%) LOX4,LOX4 [3],107±2%
same,Sensitivity of AOC,AOC; 1.0 mM,insensitivity
"O=C(O)c1ccccc1O [SA, salicylic acid]",activity at 280 µM,LOX4 [1],101 ± 4%
same,activity at 280 µM,LOX3 [2],101 ± 5%
"O=C(O)/C=C/CCCCCCCCC(=O)O [TA, traumatic acid]",activity at 280 µM,LOX4 [1],100 ± 9%
same,activity at 280 µM,LOX3 [2],100 ± 5%
same,Photometry Relative activity (%) LOX4,LOX4 [3],106 ± 4%
